What was measured:
A2780 = experiment: Cell cytotoxicity was determined against human ovarian cancer (A2780) cell line; format: functional, cell-based
HL-60 = experiment: Cell cytotoxicity was determined against human promyelocytic leukemia (HL60) cell line; format: functional, cell-based
[1] = target: T1, DNA topoisomerase II (Homo sapiens) (UniProt P11388+Q02880); experiment: Percent of DNA remaining uncut after incubation with Topoisomerase II at 10 uM concentration; format: protein assay
[2] = target: T1, DNA topoisomerase II (Homo sapiens); experiment: Percent of DNA remaining uncut after incubation with Topoisomerase II at 0.1 uM concentration; format: protein assay
[3] = target: T1, DNA topoisomerase II (Homo sapiens); experiment: Percent of DNA remaining uncut after incubation with Topoisomerase II at 1 uM concentration; format: protein assay

| SMILES | IC50 (A2780) [µM] | IC50 (HL-60) [µM] | Uncut DNA [1] [%] | Uncut DNA [2] [%] | Uncut DNA [3] [%] |
| --- | --- | --- | --- | --- | --- |
| C(=N\NC1=NCCN1)/c1c2ccccc2nc2ccccc12 | 28.1 | 48.1 | 25 | 51 | 38 |
| C(=N\NC1=NCCN1)/c1ccc(/C=N/NC2=NCCN2)c2cc3ccccc3cc12 | 4.8 | 11.2 | 95 | 54 | 103 |
| C(=N\NC1=NCCN1)/c1c2ccccc2cc2ccccc12 | 37.8 | 73.5 | 11 | 41 | 30 |
| COc1cc(NS(C)(=O)=O)ccc1Nc1c2ccccc2nc2ccccc12 [AMSACRINE] | 0.35 | 0.4 | 1 | 12 | 4 |
| C(=N\NC1=NCCN1)/c1c2ccccc2c(/C=N/NC2=NCCN2)c2ccccc12 [BISANTRENE] | 0.34 | 0.3 | 57 | 14 | 46 |
| C(=N\NC1=NCCN1)/c1cccc2cc3ccccc3cc12 | 18.6 | 23 | 20 | 56 | 48 |
